“Also recorded” adds a separate entry of the source.
How the values were obtained:
[1] = system: rat cornea; assay: Experiment 1: BrdU staining of cornea after MS-818 ophthalmic drops; format: in vivo
Experimental: (§1) Surgeries were performed to remove the left lachrymal gland from sixteen rats. MS-818 was then administered via ophthalmic drop to both eyes of twelve of the rats divided into three dosage groups, 1 mg/ml, 3 mg/ml, and 10 mg/ml. The remaining four rats served as a control group, receiving drops of phosphate buffered saline. The compound was administered three times over a period of three days. BrdU was administered during this time via intra-peritoneal injection. Rats were euthanized seven days after the first compound administration and underwent perfusion. Eyes were sliced in twenty micron slices using a cryostat. The slices were mounted on glass slides. The slides were then stained with monoclonal mouse anti BrdU primary antibody to test for the incorporation of BrdU into nuclei. TRITC conjugated donkey anti mouse secondary antibody was used to detect the primary antibody. Slides were stained with DAPI to visualize the nuclei. Images were captured of the slices in 100× magnification under TRITC, DAPI and FITC fluorescence.

[2] = system: rat cornea; assay: Experiment 2: BrdU staining of cornea after MS-818 ophthalmic drops; format: in vivo
Experimental: as §1, with “According to another example similar to experiment 1, surgeries” for “Surgeries”, “groups, 100 μg/ml, 300 μg/ml, and” for “groups,”, “1” for “1 mg/ml, 3 mg/ml, and 10”

## CN1Cc2nc(N3CCCCC3)ncc2C1=O.O=C(O)/C=C\C(=O)O [MS-818, 2-piperadino-6-methyl-5-oxo-5,6-dihydro-(7H) pyrrole-[3,4-d]pyrimidine maleate]
[1]; ophthalmic drops, three dosage groups, preliminary results
  proliferation in the non-injured eyes vs non-drug receiving control group: marked increase in proliferation
[1]; rat, eye drop, high dosage (1 mg/ml), three times over three days, euthanized seven days after first administration, non surgical eye, FIG. 1B vs control FIG. 1A
  BrdU positive signaling within the cornea (cell proliferation): significantly increased BrdU positive signaling
[2]; eye drop 100 μg/ml, 300 μg/ml, 1 mg/ml, three times over three days, non surgical eye, FIG. 4
  cell proliferation (BrdU staining) in cornea vs control animal: significant increase in cell proliferation over the control animal
[2]; eye drop, low, medium and high dose vs control, n=6, FIG. 5
  number of nuclei positive for BrdU per field of view in the cornea: significantly (p<0.05) higher than the control; also recorded: significant and dose dependent increase
